Like-named read-outs stand apart in the source and are kept apart here. Each block holds one compound with its values, some of them ahead of it. Square brackets hold non-standard residues; d marks the D form. Peptide text beside a SMILES is read from it. * marks the point of attachment. X1 = COc1ccc(C[C@@H](CN[C@@H](CCCNC(=N)N)C(=O)O)N*)cc1; Hyp = O=C(O)[C@@H]1C[C@@H](O)CN1; 2Thi = N[C@@H](Cc1cccs1)C(=O)O
Assays:
[1] = tested on: bovine ciliary muscle (BCM) strips; experiment: tissue or blood; type: cell-based; conditions: for share of the maximal contraction accounted for by the first high affinity/potency phase: biphasic C-R curve, BCM strips; for Max. Tension Generated During Contraction: freshly isolated BCM strips, Krebs 37 °C, 1 g load, 7–11 concentrations (0.1 nM–10 µM), mean ± SEM, 3–8 experiments
Procedure: The methods utilized in the current studies were adapted from Lograno and Romano [13] and Ohia et al., with some minor modifications. Fresh bovine eyeballs were obtained from a local abattoir (Fisher Ham and Meat Company, Houston, TX, USA) and transported to the laboratory in ice. Whole eyeballs were placed in warm oxygenated Krebs buffer solution for 30 min to ensure equilibration before dissection of the ciliary muscle. Briefly, the anterior segment was dissected out of whole eyeballs after an incision was made at the limbus. The anterior segment containing the cornea, anterior uvea, and lens was then inverted and the lens dislodged with a probe along with the attached vitreous humor. After removal of the vitreous humor and lens, the whole ciliary muscle (comprising both longitudinal and circular portions) was quickly isolated and dissected from the scleral spur and choroid. Muscle strips of 4–5 mm in length were cut and mounted in 25 mL organ baths containing oxygenated Krebs solution at 37 °C using a silk thread linked to an isometric strain gauge under a constant load of 1g tension. The tissues were then allowed to equilibrate for 30 min. Two ciliary muscle strips were prepared from each eyeball and four to eight strips were used for each series of experiments. The composition of the Krebs solution used (mM) was NaCl, 118; KCl, 4.8; CaCl2, 2.5; KH2PO4, 1.2; NaHCO3, 25; MgSO4, 2.0; dextrose, 10 and flurbiprofen, 0.003 (pH 7.4), all purchased from Sigma-Aldrich, St. Louis, MO (USA). […] A robust response was characterized as a single contraction that consistently yielded a tension in the muscle induced by carbachol of 0.15–0.3 gm. […] Tissue strips were then thoroughly rinsed with fresh buffer solution via a series of buffer additions and drainage activities to remove any residual muscarinic agonist, and the preload was readjusted prior to starting the actual study with kininergic ligands. Concentration–response studies employed 7–11 compound concentrations (0.1 nM to 10 µM) and data from multiple experiments were collected.
The contractile responses obtained were expressed as gram tension developed and as percentages of the maximum response of each of the compounds. GraphPad Prism 4.0 Software (San Diego, CA, USA) was then used to construct the concentration–response curves for the kinins and to derive the half-maximal stimulation potencies (EC50) of each phase of the bi-phasic curves and the values tabulated as previously described.

[2] = molecular target: kinin B1 receptor (Oryctolagus cuniculus) (UniProt P48748); conditions: cited from earlier work
[3] = molecular target: kinin B1 receptor (Homo sapiens) (UniProt P46663); conditions: cited from earlier work
[4] = molecular target: kinin B1 receptor (Mus musculus) (UniProt Q61125); conditions: cited from earlier work
[5] = molecular target: kinin B2 receptor (Mus musculus) (UniProt P32299); conditions: cited from earlier work
[6] = molecular target: kinin B2 receptor (Homo sapiens) (UniProt P30411); conditions: cited from earlier work
[7] = molecular target: kinin B2 receptor (Oryctolagus cuniculus) (UniProt Q28642); conditions: cited from earlier work
[8] = molecular target: kinin B1 receptor (Mus musculus) (UniProt Q61125); conditions: cited from earlier work; remark: listed apart in the source

UniProt Q61125, sequence (Q61125 whole entry): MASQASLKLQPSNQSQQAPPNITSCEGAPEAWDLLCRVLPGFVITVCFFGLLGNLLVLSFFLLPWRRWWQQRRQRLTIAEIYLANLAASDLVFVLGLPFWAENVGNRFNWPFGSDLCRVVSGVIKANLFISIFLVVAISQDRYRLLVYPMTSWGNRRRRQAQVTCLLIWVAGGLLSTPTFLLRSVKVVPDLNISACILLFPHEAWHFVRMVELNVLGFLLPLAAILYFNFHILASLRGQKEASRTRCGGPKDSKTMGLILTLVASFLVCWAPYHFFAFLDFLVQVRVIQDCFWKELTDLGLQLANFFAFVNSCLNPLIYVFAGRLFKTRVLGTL
UniProt P46663, sequence (P46663 whole entry): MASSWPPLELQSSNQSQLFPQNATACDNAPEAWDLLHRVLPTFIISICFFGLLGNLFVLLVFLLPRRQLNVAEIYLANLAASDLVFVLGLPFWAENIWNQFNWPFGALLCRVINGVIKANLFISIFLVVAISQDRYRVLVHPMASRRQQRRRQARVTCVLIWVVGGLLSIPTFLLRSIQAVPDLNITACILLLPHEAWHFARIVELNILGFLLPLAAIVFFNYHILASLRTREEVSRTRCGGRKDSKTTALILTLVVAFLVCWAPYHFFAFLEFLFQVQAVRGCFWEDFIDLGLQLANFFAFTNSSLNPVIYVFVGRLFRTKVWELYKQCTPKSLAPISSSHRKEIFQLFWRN
UniProt P48748, sequence (P48748 whole entry): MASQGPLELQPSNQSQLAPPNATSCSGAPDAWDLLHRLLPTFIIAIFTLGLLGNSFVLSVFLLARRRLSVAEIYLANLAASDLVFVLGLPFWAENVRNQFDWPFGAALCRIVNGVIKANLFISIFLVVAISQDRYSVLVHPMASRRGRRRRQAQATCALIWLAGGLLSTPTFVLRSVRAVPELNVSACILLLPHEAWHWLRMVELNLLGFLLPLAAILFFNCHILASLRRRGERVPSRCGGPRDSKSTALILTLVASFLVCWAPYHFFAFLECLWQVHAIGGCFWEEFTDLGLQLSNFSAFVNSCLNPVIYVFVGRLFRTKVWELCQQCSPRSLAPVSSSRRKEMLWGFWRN
UniProt P30411, sequence (P30411 whole entry): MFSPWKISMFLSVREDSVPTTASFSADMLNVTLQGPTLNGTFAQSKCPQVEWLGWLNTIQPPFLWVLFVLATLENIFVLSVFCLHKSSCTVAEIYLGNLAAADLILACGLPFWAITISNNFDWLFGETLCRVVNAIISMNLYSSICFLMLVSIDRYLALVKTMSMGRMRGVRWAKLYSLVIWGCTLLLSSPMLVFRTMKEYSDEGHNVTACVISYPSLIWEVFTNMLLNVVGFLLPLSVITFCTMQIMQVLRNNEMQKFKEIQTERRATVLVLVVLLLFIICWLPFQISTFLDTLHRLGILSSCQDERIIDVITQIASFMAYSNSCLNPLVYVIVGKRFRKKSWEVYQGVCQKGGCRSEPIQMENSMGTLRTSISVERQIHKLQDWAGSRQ
UniProt P32299, sequence (P32299 whole entry): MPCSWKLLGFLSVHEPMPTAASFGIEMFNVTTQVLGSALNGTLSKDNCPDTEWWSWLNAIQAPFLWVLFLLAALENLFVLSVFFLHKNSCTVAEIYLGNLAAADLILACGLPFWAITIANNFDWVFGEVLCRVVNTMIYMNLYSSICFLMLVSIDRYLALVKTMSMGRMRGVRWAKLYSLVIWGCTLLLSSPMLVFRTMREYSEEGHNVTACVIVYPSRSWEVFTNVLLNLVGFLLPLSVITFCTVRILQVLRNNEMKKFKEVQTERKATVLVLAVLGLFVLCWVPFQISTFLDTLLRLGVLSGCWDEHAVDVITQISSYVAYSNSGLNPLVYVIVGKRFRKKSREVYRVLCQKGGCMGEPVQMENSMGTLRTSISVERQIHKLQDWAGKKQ
UniProt Q28642, sequence (Q28642 whole entry): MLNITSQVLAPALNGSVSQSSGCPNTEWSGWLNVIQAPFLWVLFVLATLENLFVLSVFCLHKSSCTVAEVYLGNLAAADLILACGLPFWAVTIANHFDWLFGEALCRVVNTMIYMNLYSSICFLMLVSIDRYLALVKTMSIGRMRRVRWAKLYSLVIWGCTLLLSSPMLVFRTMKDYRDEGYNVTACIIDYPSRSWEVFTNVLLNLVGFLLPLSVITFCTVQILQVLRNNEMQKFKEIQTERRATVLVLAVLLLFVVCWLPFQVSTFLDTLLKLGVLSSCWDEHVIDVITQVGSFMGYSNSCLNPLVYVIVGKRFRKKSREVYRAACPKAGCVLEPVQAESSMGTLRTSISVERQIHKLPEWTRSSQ

Compound: N=C(N)NCCC[C@H](NC(=O)[C@H](Cc1ccccc1)NC(=O)[C@@H]1CCCN1C(=O)[C@H](CO)NC(=O)[C@H](Cc1ccccc1)NC(=O)CNC(=O)[C@@H]1C[C@@H](O)CN1C(=O)[C@@H]1CCCN1C(=O)[C@@H](N)CCCNC(=N)N)C(=O)O [Hyp^3-BK, Hyp^3-Bradykinin]
share of the maximal contraction accounted for by the first high affinity/potency phase [1]: 40–60%
Max. Tension Generated During Contraction [1]: 0.04 ± 0.01 gm tension

Compound: N=C(N)NCCC[C@H](NC(=O)[C@H](Cc1ccccc1)NC(=O)[C@@H]1CCCN1C(=O)[C@H](CO)NC(=O)[C@H](Cc1ccccc1)NC(=O)CNC(=O)[C@@H]1CCCN1C(=O)[C@@H]1CCCN1C(=O)[C@H](CCCNC(=N)N)NC(=O)[C@@H](N)CCCCN)C(=O)O [Lys-BK, Lys-Bradykinin]
share of the maximal contraction accounted for by the first high affinity/potency phase [1]: 40–60%
Max. Tension Generated During Contraction [1]: 0.06 ± 0.01 gm tension

Compound: CSCC[C@H](N)C(=O)N[C@@H](CCCCN)C(=O)N[C@@H](CCCNC(=N)N)C(=O)N1CCC[C@H]1C(=O)N1CCC[C@H]1C(=O)NCC(=O)N[C@@H](Cc1ccccc1)C(=O)N[C@@H](CO)C(=O)N1CCC[C@H]1C(=O)N[C@@H](Cc1ccccc1)C(=O)N[C@@H](CCCNC(=N)N)C(=O)O [Met-Lys-BK, Met-Lys-Bradykinin]
share of the maximal contraction accounted for by the first high affinity/potency phase [1]: 40–60%
Max. Tension Generated During Contraction [1]: 0.06 ± 0.01 gm tension

EC50 [1]: 3.5 ± 0.5 nM
Compound: COc1ccc(C[C@@H](CN[C@@H](CCCNC(=N)N)C(=O)O)NC(=O)[C@@H]2CCCN2C(=O)[C@H](CO)NC(=O)[C@H](Cc2cccs2)NC(=O)CNC(=O)[C@@H]2C[C@@H](O)CN2C(=O)[C@@H]2CCCN2C(=O)[C@@H](N)CCCNC(=N)N)cc1 [RMP-7] (H-RP[Hyp]G[2Thi]SP-X1)
share of the maximal contraction accounted for by the first high affinity/potency phase [1]: 40–60%
Max. Tension Generated During Contraction [1]: 0.07 ± 0.01 gm tension

Compound: CN1[C@@H]2CC[C@H]1C[C@@H](OC(=O)C(CO)c1ccccc1)C2 (stereo partly shown) [atropine]
EC50 ([1]; Bos taurus, carbachol C-R curve in the absence and presence of atropine, n = 6, read-out: potency (EC50) from monophasic carbachol concentration-response curve): 1000 ± 70 nM
effect of muscarinic antagonist on carbachol-induced BCM contraction ([1]; increasing concentrations of atropine, n = 6–8): concentration-dependently blocked

Compound: C[N+](C)(C)CCOC(N)=O [carbachol]
contraction of BCM by positive control agent ([1]; monophasic concentration-dependent profile, n = 6–8): always contracted the tissue

Compound: Bradykinin (from UniProt P01042)
Ki [2]: 5000 nM
Ki [3]: 10000 nM
Ki [4]: 200 nM
Ki [5]: 0.48 nM
Ki [6]: 0.54 nM
Ki [7]: 4.5 nM

Compound: Des-Arg9-bradykinin (from UniProt P01042)
Ki [8]: 0.7 nM

— article PMC11597478, “Kinin B1- and B2-Receptor Subtypes Contract Isolated Bovine Ciliary Muscle: Their Role in Ocular Lens Function and Intraocular Pressure Reduction” (Pharmaceuticals, 2024)
